Results taken from patent EP1219631A1, “ANTIANDROGEN AGENTS” (CHUGAI SEIYAKU KABUSHIKI KAISHA, priority 1999, dated 2001).
Like-named read-outs stand apart in the source and are kept apart here.

Key:
human androgen receptor [1] = target: T1, human androgen receptor (Homo sapiens, UniProt P10275); assay: Androgen receptor reporter gene assay, agonist action (MMTV-Luc, pSG5-hAR and Renilla Luc vectors transfected into HeLa cells, dual-luciferase); format: cell-based; settings: for FI5 value: concentration showing a transcriptional activity five times that without compound, tested at 1, 10, 100, 1000 and 10000 nmol/L
T1 construct: expressed in transfected cells; host or cells: HeLa cells
T1 sequence (P10275 1-920): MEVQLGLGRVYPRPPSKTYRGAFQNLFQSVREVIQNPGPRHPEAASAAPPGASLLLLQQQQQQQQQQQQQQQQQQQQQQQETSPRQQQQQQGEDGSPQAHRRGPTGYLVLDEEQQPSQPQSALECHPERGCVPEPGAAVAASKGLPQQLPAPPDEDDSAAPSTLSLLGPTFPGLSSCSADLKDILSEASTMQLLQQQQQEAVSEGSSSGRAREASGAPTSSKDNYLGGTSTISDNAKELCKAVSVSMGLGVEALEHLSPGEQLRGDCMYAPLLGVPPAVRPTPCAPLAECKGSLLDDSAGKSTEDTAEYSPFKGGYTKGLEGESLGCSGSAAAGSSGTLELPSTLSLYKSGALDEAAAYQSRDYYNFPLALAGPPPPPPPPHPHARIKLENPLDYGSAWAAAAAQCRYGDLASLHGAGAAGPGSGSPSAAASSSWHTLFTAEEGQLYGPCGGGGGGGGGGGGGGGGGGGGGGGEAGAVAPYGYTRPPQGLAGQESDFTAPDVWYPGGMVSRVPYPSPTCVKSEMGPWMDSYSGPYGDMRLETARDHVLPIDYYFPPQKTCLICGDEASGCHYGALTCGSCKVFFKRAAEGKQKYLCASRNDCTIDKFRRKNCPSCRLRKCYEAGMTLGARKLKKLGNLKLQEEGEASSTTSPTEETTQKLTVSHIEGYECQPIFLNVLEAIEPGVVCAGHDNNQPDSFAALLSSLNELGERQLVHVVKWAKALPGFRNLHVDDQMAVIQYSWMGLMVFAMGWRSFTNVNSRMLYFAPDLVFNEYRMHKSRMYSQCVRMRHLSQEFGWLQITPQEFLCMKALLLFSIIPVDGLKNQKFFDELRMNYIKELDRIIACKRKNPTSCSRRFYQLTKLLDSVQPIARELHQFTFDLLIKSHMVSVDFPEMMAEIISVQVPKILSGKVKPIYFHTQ
From the text: Speaking of the substance of the invention which acts as antagonist against but not as agonist for the androgen receptor, the expression "not acting as agonist" means that in the following androgen receptor gene assay, the transcriptional activity value of the substance at any concentration of 0.1 nmol/L - 10 µmol/L is from one to five times the transcriptional activity value for no addition of the substance which is taken as unity:
Twenty-four hours before transfection, 1.0 x 10^5 HeLa cells (purchased from Dainippon Pharmaceutical Co., Ltd.) are cultured in phenol red free Dulbecco's modified Eagle medium (DMEM) containing 5% of charcoal-treated FBS (DCC-FBS) in 12-well microplates. Five hundred nanograms/well of MMTV-Luc vector (the reporter plasmid of luciferase having mouse tumor long terminal repeats containing the androgen response element: GM-CAT vector (A.T.C.C. No. 67282) purchased from A.T.C.C. provided that the chloramphenicol acetyl transferase gene was replaced by the firefly luciferase gene), 100 ng/well of pSG5-hAR (the expression vector of the human androgen receptor which harbors the androgen receptor gene under the control of SV40 promoter) and 5 ng/well of Renilla Luc vector (a vector for internal standard incorporating the sea pansy luciferase gene) are transfected into the HeLa cells. The transfection is performed in a liquid culture of the phenol red free DMEM using […] of lipofectoamine (GibcoBRL). Nine hours after the transfection, the liquid culture is replaced by phenol red free DMEM/3% DCC-FBS containing 10 µmol/L of a compound of the invention which is represented by the general formula (I) or the substance of the invention which acts as antagonist against but not as agonist for the androgen receptor. The transcriptional activity value is measured 48 hours after the replacement of the liquid culture. Transcriptional activity is measured with a dual-luciferase reporter assay system (Promega). The transcriptional activity value is defined as the value for firefly luciferase divided by the value for sea pansy luciferase. […] 270, pp. 19998-20003, 1995.
(§1) Twenty-four hours before transfection, 1.0 x 10^5 HeLa cells were cultured in phenol red free DMEM/5% DCC-FBS on 12-well microplates. Five hundred nanograms/well of MMTV-Luc vector, 100 ng/well of pSG5-hAR and 5 ng/well of Renilla Luc vector were transfected into the HeLa cells. The transfection was performed in a liquid culture of the phenol red free DMEM using […] of lipofectoamine. […] The transcriptional activity value was measured 48 hours after the replacement of the liquid culture. Transcriptional activity was measured with a dual-luciferase reporter assay system. The transcriptional activity value was calculated as the value for firefly luciferase divided by the value for sea pansy luciferase.
The compound was added at concentrations of 1, 10, 100, 1000 and 10000 nmol/L. Agonist activity = Transcriptional activity when the compound was added/Transcriptional activity when the compound was not added [formula]

human androgen receptor [2] = target: T1, human androgen receptor; assay: Androgen receptor reporter gene assay, antagonist action against DHT (MMTV-Luc, pSG5/hAR and Renilla Luc vectors transfected into HeLa cells, dual-luciferase); format: cell-based
Protocol: The expression "acting as antagonist" means that in the following androgen receptor gene assay, the transcriptional activity value of 0.1 nmol/L of dihydrotestosterone (DHT) is inhibited to 0 - 50% at any concentration of 0.1 nmol/L - 10 µmol/L:
Twenty-four hours before transfection, 1.0 x 10^5 HeLa cells are cultured in phenol red free DMEM/5% DCC-FBS on 12-well microplates. Five hundred nanograms/well of MMTV-Luc vector, 100 ng/well of pSG5/hAR and 5 ng/well of Renilla Luc vector are transfected into the HeLa cells. The transfection is performed in a liquid culture of the phenol red free DMEM using […] of lipofectoamine. Nine hours after the transfection, the liquid culture is replaced by phenol red free DMEM/3% DCC-FBS containing 0.1 nmol/L of DHT and […] of a compound of the invention which is represented by the general formula (I) or the substance of the invention which acts as antagonist against but not as agonist for the androgen receptor. The transcriptional activity value is measured 48 hours after the replacement of the liquid culture. Transcriptional activity is measured with a dual-luciferase reporter assay system. The transcriptional activity value is defined as the value for firefly luciferase divided by the value for sea pansy luciferase. […] 270, pp. 19998-20003, 1995.
as §1, with “pSG5/hAR” for “pSG5-hAR”
The compound was added at concentrations of 1, 10, 100, 1000 and 10000 nmol/L and at each of these concentrations, measurement was done in the presence of DHT (0.1 nmol/L). Antagonist activity = Transcriptional activity when the compound was added/Transcriptional activity when the compound was not added x 100 [formula]

[3] = concentration giving 50% decrease in the transcriptional activity of DHT 0.1 nmol/L, tested at 1, 10, 100, 1000 and 10000 nmol/L, read-out: IC50 value

Compound | IC50 (human androgen receptor [2]) | IC50 (human androgen receptor [2]; [3]) | further results
CNC(=O)CCCOc1cccc(CCC[C@@H]2C[C@H]3CC(=O)CC[C@]3(C)[C@H]3CC[C@]4(C)[C@@H](O)CC[C@H]4[C@H]23)c1 (stereo in doubt) [Example 164, 17β-hydroxy-7α-[3-[3-{3-(N-methylaminocarbonyl)propoxy}phenyl]propyl]-5α-androstan-3-one] | 291 nM | – | FI5 value (human androgen receptor [1]): ND (even when the compound was added at a concentration of 10000 nM, the transcriptional activity of the compound-treated group was less than 5 times the transcriptional activity of the control group, making it impossible to compute the FI5 value)
CC12CCC3C(C(CCCCCCCC(=O)N4CCCC4)CC4CC(=O)CCC43C)C1CCC2O (stereo not drawn) [Example 29] | 304 nM | – | FI5 value (human androgen receptor [1]): ND (even when the compound was added at a concentration of 10000 nM, the transcriptional activity of the compound-treated group was less than 5 times the transcriptional activity of the control group, making it impossible to compute the FI5 value)
C[C@]12CCC(=O)C[C@@H]1C[C@@H](CCCCCCCC(=O)NCCO)[C@@H]1[C@@H]2CC[C@]2(C)[C@@H](O)CC[C@@H]12 (stereo in doubt) [Example 64, 17β-hydroxy-7α-[7-{N-(2-hydroxyethyl]-aminocarbonyl}heptyl]-5α-androstan-3-one] | – | 809 nM | –
CC12CCC3C(C(CCCCCCCC(=O)NCCc4ccccc4)CC4CC(=O)CCC43C)C1CCC2O (stereo not drawn) [Example 74] | 2040 nM | – | FI5 value (human androgen receptor [1]): ND (even when the compound was added at a concentration of 10000 nM, the transcriptional activity of the compound-treated group was less than 5 times the transcriptional activity of the control group, making it impossible to compute the FI5 value)
CCCN(C)C(=O)CCCCCCCC1CC2CC(=O)CCC2(C)C2CCC3(C)C(O)CCC3C12 (stereo not drawn) [Example 26] | – | 1130 nM | –
CN(C)C(=O)CCCOc1cccc(CCCC2CC3CC(=O)CCC3(C)C3CCC4(C)C(O)CCC4C23)c1 (stereo not drawn) [Example 168] | – | 540 nM | –
CN(C)C(=O)CCCCCCCCCCC1CC2CC(=O)CCC2(C)C2CCC3(C)C(O)CCC3C12 (stereo not drawn) [Example 52] | 277 nM | – | FI5 value (human androgen receptor [1]): ND (even when the compound was added at a concentration of 10000 nM, the transcriptional activity of the compound-treated group was less than 5 times the transcriptional activity of the control group, making it impossible to compute the FI5 value)
CC12CCC3C(C(CCCc4cccc(OCCCCC(=O)N5CCCC5)c4)CC4CC(=O)CCC43C)C1CCC2O (stereo not drawn) [Example 167] | – | 475 nM | –
CC12CCC3C(C(CCCCCCCCCC(=O)N4CCOCC4)CC4CC(=O)CCC43C)C1CCC2O (stereo not drawn) [Example 51] | – | 474 nM | –
CCCCN(C)C(=O)CCCCCCCCCC1CC2CC(=O)CCC2(C)C2CCC3(C)C(O)CCC3C12 (stereo not drawn) [Example 46] | – | 1750 nM | –
CN(C)C(=O)CCCCCCCCCC1CC2CC(=O)CCC2(C)C2CCC3(C)C(O)CCC3C12 (stereo not drawn) [Example 42] | – | 342 nM | –
CCN(C)C(=O)CCCCCCCC1CC2CC(=O)CCC2(C)C2CCC3(C)C(O)CCC3C12 (stereo not drawn) [Example 25] | – | 415 nM | –
CCCNC(=O)CCCCCCCC1CC2CC(=O)CCC2(C)C2CCC3(C)C(O)CCC3C12 (stereo not drawn) [Example 65] | – | 1830 nM | –
CC(C)N(C)C(=O)CCCCCCCC1CC2CC(=O)CCC2(C)C2CCC3(C)C(O)CCC3C12 (stereo not drawn) [Example 27] | 421 nM | – | –
CCNC(=O)CCCCCCC[C@@H]1C[C@H]2CC(=O)CC[C@]2(C)[C@H]2CC[C@]3(C)[C@@H](O)CC[C@H]3[C@H]12 [Example 10] | – | 937 nM | –
CC12CCC3C(C(CCCCCCCC(=O)NCc4ccccc4)CC4CC(=O)CCC43C)C1CCC2O (stereo not drawn) [Example 73] | – | 1100 nM | –
CN(C)C(=O)CCCCCCC[C@@H]1C[C@H]2CC(=O)CC[C@]2(C)[C@H]2CC[C@]3(C)[C@@H](O)CC[C@H]3[C@H]12 [Example 9, 17β-hydroxy-7α-{7-(N,N-dimethylaminocarbonyl)-heptyl}-5α-androstan-3-one] | 451 nM | – | –
CC12CCC3C(C(CCCCCCCC(=O)NCc4ccco4)CC4CC(=O)CCC43C)C1CCC2O (stereo not drawn) [Example 23] | – | 1300 nM | –
bicaltamide | – | – | transcriptional activity value relative to the case of non-addition (human androgen receptor [1]; Example 1, HeLa cells, 48 hours): more than five times; acting as agonist (human androgen receptor [1]; at a concentration of 10 µmol/L): act as agonist; FI5 value (human androgen receptor [1]): 767 nM; agonist action for the androgen receptor mediated transcriptional activity (human androgen receptor [1]; summary of the results of Example 180): exhibit agonist action
CNC(=O)CCCCCCCC1CC2CC(=O)CCC2(C)C2CCC3(C)C(O)CCC3C12 (stereo not drawn) [Example 24] | 477 nM | – | –
CCN(CC)C(=O)CCCCCCCCCC1CC2CC(=O)CCC2(C)C2CCC3(C)C(O)CCC3C12 (stereo not drawn) [Example 43] | – | 1300 nM | –
CCN(CC)C(=O)CCCCCCCC1CC2CC(=O)CCC2(C)C2CCC3(C)C(O)CCC3C12 (stereo not drawn) [Example 19] | 295 nM | – | –
CCN(CC)C(=O)CCCCCCCCCC1CC2(C)C(O)CCC2C2CCC3CC(=O)CCC3(C)C12 (stereo not drawn) [Example 96] | – | 1600 nM | –
CCCCN(C)C(=O)CCCCCCCC1CC2CC(=O)CCC2(C)C2CCC3(C)C(O)CCC3C12 (stereo not drawn) [Example 18] | 342 nM | – | –
CCCN(C)C(=O)CCCCCCCCCC1CC2CC(=O)CCC2(C)C2CCC3(C)C(O)CCC3C12 (stereo not drawn) [Example 50] | – | 737 nM | –
CCCCN(C)C(=O)CCCCCCCCCC[C@@H]1CC2=CC(=O)CC[C@]2(C)[C@H]2CC[C@]3(C)[C@@H](O)CC[C@H]3[C@H]12 [EM-101, reference compound] | – | 2620 nM | –
